Source: ChEMBL document CHEMBL5661976 (Cancer Res, 2007)

What was measured:
[1] = target: Receptor tyrosine-protein kinase erbB-2 (Mus musculus, UniProt P70424); assay: Inhibition of ERBB2 expressed in mouse NIH3T3 cells; assay type: cell-based
[2] = target: AMP-activated protein kinase, AMPK; assay: Inhibition of recombinant AMPK (unknown origin); assay type: protein-complex assay, Homo sapiens
[3] = target: Serine/threonine-protein kinase Chk1 (Homo sapiens, UniProt O14757); assay: Inhibition of recombinant CHK1 (unknown origin)
Casein kinase I = assay: Inhibition of recombinant CK1 (unknown origin); assay type: protein assay, Homo sapiens
Casein kinase 2 = Casein kinase 2 (Homo sapiens, UniProt P67870+P68400+P19784+Q8NEV1); assay: Inhibition of recombinant CK2 (unknown origin); assay type: protein assay
[4] = target: Tyrosine-protein kinase CSK (Homo sapiens, UniProt P41240); assay: Inhibition of recombinant CSK (unknown origin)
[5] = target: Dual specificity tyrosine-phosphorylation-regulated kinase 1A (Homo sapiens, UniProt Q13627); assay: Inhibition of recombinant DYRK1a (unknown origin)
[6] = target: Glycogen synthase kinase-3 beta (Homo sapiens, UniProt P49841); assay: Inhibition of recombinant GSK3b (unknown origin)
[7] = target: Mitogen-activated protein kinase 8 (Homo sapiens, UniProt P45983); assay: Inhibition of recombinant SAPK1c (unknown origin)
[8] = Inhibition of recombinant MAPK2/ERK2 (unknown origin); set-up: species or system Homo sapiens
[9] = target: Ribosomal protein S6 kinase alpha-1 (Homo sapiens, UniProt Q15418); assay: Inhibition of recombinant MAPKAP-K1a (unknown origin)
[10] = target: MAP kinase-activated protein kinase 2 (Homo sapiens, UniProt P49137); assay: Inhibition of recombinant MAPKAP-K2 (unknown origin)
[11] = target: Ribosomal protein S6 kinase alpha-5 (Homo sapiens, UniProt O75582); assay: Inhibition of recombinant MSK1 (unknown origin)
[12] = target: Serine/threonine-protein kinase Nek6 (Homo sapiens, UniProt Q9HC98); assay: Inhibition of recombinant NEK6 (unknown origin)
[13] = target: Serine/threonine-protein kinase Nek2 (Homo sapiens, UniProt P51955); assay: Inhibition of recombinant NEK2a (unknown origin)
[14] = Inhibition of recombinant PDGF (unknown origin); set-up: species or system Homo sapiens
[15] = Inhibition of recombinant PKB delta ph mutant (unknown origin); set-up: species or system Homo sapiens
[16] = target: Protein kinase C alpha type (Homo sapiens, UniProt P17252); assay: Inhibition of recombinant PKCa (unknown origin)
[17] = target: MAP kinase-activated protein kinase 5 (Homo sapiens, UniProt Q8IW41); assay: Inhibition of recombinant PRAK (unknown origin)
[18] = Inhibition of recombinant p70S6K (unknown origin); set-up: species or system Homo sapiens
[19] = target: Rho-associated protein kinase 2 (Homo sapiens, UniProt O75116); assay: Inhibition of recombinant ROCK-II (unknown origin)
[20] = target: Mitogen-activated protein kinase 14 (Homo sapiens, UniProt Q16539); assay: Inhibition of recombinant SAPK2a/p38 (unknown origin)
[21] = target: Mitogen-activated protein kinase 11 (Homo sapiens, UniProt Q15759); assay: Inhibition of recombinant SAPK2b/p38beta2 (unknown origin)
[22] = target: Mitogen-activated protein kinase 12 (Homo sapiens, UniProt P53778); assay: Inhibition of recombinant SAPK3/p38gamma (unknown origin)
[23] = target: Mitogen-activated protein kinase 13 (Homo sapiens, UniProt O15264); assay: Inhibition of recombinant SAPK4/p38delta (unknown origin)
[24] = target: Serine/threonine-protein kinase Sgk1 (Homo sapiens, UniProt O00141); assay: Inhibition of recombinant SGK (unknown origin)
Wee1-like protein kinase = Wee1-like protein kinase (Homo sapiens, UniProt P30291); assay: Inhibition of recombinant Wee1 (unknown origin)
[25] = Inhibition of recombinant Akt (unknown origin); set-up: species or system Homo sapiens
[26] = Inhibition of recombinant Bir Kinase (unknown origin); set-up: species or system Homo sapiens
[27] = Inhibition of recombinant CDK2/Cyclin A (unknown origin); set-up: species or system Homo sapiens
[28] = target: Cyclin-dependent kinase 4/cyclin D (Homo sapiens, UniProt P11802); assay: Inhibition of recombinant CDK4/Cyclin D (unknown origin); assay type: protein-complex assay
[29] = target: Tyrosine-protein kinase Fes/Fps (Homo sapiens, UniProt P07332); assay: Inhibition of recombinant FES (unknown origin)
[30] = target: Insulin-like growth factor 1 receptor (Homo sapiens, UniProt P08069); assay: Inhibition of recombinant IGF1R (unknown origin)
[31] = target: Dual specificity mitogen-activated protein kinase kinase 1 (Homo sapiens, UniProt Q02750); assay: Inhibition of recombinant MEK1 (unknown origin)
[32] = target: cAMP-dependent protein kinase (PKA) (Homo sapiens, UniProt P22694+P17612+P22612); assay: Inhibition of recombinant PKA (unknown origin); assay type: protein assay
A549 = assay: cells; assay type: functional, cell-based; details: Homo sapiens, A549, 72 h
Description: Antiproliferative activity against human A549 cells harboring K-ras G12S mutant assessed as inhibition of cell growth incubated for 72 hrs by MTS assay

NCI-H441 = assay: cells; assay type: functional, cell-based; details: Homo sapiens, NCI-H441, 72 h
Description: Antiproliferative activity against human NCI-H441 cells harboring K-ras G12V mutant assessed as inhibition of cell growth incubated for 72 hrs by MTS assay

H322 = assay: cells; assay type: functional, cell-based; details: Homo sapiens, NCI-H322, 72 h
Description: Antiproliferative activity against human H322 cells assessed as inhibition of cell growth incubated for 72 hrs by MTS assay

Calu-3 = assay: cells; assay type: functional, cell-based; details: Homo sapiens, Calu-3, 72 h
Description: Antiproliferative activity against human Calu-3 cells overexpressing ERBB2 assessed as inhibition of cell growth incubated for 72 hrs by MTS assay

cells = assay type: functional, cell-based; details: Homo sapiens, NCI-H1819, 72 h
Description: Antiproliferative activity against human NCI-H1819 cells overexpressing ERBB2 assessed as inhibition of cell growth incubated for 72 hrs by MTS assay

Measured: IC50

Sequence of Wee1-like protein kinase (P30291 whole entry): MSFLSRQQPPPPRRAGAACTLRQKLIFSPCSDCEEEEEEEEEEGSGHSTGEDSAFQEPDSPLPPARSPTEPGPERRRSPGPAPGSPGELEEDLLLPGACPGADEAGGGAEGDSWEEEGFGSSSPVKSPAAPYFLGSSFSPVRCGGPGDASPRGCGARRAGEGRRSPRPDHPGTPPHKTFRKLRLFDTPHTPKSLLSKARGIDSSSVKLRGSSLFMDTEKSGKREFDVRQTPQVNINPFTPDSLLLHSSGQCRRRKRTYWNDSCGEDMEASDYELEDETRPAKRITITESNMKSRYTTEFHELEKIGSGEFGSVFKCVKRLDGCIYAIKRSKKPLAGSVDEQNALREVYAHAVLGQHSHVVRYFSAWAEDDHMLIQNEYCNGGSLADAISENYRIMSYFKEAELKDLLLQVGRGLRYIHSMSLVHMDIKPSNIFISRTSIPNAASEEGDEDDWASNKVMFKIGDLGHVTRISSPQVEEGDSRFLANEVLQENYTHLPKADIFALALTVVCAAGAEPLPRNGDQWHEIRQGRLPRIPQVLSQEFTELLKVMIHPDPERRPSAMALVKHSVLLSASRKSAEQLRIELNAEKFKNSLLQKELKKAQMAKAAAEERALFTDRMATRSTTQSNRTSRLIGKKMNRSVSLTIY
Sequence of Mitogen-activated protein kinase 11 (Q15759 whole entry): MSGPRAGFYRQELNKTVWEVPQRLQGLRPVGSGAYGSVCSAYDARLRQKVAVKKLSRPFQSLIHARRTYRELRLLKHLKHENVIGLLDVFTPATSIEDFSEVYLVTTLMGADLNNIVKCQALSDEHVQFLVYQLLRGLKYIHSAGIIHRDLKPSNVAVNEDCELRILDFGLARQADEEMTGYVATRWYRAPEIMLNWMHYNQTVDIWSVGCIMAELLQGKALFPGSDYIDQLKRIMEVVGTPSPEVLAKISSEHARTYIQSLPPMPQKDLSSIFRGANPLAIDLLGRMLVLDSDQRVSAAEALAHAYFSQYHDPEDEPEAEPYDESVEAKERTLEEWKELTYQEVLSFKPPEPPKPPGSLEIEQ
Sequence of Serine/threonine-protein kinase Nek6 (Q9HC98 whole entry): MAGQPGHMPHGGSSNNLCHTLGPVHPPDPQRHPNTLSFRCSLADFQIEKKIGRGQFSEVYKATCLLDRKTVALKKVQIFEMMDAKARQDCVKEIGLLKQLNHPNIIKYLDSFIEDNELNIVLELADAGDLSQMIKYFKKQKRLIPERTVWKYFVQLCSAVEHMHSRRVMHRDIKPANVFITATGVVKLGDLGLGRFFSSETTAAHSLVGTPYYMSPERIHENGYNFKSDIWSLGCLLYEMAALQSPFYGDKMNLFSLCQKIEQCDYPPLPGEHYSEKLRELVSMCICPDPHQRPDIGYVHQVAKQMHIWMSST
Sequence of Mitogen-activated protein kinase 12 (P53778 whole entry): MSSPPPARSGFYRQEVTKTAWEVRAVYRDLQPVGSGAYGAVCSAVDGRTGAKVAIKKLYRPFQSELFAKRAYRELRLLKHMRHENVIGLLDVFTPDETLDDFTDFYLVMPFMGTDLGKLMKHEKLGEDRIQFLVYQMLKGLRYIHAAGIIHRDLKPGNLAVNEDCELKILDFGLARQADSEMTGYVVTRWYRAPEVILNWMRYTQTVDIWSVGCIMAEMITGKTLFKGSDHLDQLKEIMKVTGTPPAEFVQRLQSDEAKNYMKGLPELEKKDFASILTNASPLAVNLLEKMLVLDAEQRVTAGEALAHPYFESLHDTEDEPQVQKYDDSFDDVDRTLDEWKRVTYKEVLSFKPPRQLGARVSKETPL
Sequence of Dual specificity mitogen-activated protein kinase kinase 1 (Q02750 whole entry): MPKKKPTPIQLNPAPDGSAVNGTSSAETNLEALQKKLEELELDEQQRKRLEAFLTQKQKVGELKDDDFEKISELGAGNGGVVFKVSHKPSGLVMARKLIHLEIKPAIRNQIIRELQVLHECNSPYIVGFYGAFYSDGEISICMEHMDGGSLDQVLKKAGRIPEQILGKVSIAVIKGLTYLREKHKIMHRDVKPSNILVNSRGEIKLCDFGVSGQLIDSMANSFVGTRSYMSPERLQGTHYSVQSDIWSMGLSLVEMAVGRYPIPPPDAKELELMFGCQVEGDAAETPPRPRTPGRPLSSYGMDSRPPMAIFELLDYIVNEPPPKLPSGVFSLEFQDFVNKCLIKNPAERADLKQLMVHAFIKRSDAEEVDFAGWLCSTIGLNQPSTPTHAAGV
Sequence of Mitogen-activated protein kinase 8 (P45983 whole entry): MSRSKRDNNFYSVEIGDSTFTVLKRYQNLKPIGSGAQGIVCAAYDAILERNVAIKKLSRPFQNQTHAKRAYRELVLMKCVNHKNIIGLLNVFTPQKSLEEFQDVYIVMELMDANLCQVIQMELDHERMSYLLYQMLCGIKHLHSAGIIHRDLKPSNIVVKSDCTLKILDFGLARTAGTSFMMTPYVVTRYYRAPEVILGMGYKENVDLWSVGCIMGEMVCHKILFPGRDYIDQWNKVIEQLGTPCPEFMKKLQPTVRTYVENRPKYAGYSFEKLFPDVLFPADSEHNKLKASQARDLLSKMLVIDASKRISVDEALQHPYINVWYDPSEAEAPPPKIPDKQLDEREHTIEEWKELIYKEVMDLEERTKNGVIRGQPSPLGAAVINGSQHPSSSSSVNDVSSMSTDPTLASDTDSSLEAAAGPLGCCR
Sequence of Glycogen synthase kinase-3 beta (P49841 whole entry): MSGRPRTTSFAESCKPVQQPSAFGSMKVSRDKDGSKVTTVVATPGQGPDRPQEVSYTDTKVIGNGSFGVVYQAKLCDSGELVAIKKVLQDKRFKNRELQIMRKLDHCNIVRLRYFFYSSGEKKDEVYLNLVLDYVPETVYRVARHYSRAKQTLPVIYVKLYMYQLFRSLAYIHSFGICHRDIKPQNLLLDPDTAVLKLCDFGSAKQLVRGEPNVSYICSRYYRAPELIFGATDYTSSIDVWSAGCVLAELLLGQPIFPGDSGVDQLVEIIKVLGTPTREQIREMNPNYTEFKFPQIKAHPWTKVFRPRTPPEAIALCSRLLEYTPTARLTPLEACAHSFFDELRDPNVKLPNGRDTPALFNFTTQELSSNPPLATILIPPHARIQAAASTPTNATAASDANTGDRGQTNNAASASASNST
Sequence of Serine/threonine-protein kinase Chk1 (O14757 whole entry): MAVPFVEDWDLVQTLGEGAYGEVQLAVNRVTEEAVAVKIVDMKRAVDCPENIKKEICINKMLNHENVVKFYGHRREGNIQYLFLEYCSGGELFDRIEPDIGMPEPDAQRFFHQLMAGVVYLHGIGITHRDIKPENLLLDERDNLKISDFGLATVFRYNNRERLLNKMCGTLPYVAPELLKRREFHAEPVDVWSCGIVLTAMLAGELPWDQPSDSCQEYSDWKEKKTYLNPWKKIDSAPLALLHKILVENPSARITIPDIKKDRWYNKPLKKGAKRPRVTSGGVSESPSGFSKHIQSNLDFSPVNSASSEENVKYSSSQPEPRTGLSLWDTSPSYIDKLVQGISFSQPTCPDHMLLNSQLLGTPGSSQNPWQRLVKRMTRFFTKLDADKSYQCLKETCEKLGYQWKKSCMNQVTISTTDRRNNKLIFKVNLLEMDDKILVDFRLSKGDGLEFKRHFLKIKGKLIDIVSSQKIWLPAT
Sequence of Serine/threonine-protein kinase Sgk1 (O00141 whole entry): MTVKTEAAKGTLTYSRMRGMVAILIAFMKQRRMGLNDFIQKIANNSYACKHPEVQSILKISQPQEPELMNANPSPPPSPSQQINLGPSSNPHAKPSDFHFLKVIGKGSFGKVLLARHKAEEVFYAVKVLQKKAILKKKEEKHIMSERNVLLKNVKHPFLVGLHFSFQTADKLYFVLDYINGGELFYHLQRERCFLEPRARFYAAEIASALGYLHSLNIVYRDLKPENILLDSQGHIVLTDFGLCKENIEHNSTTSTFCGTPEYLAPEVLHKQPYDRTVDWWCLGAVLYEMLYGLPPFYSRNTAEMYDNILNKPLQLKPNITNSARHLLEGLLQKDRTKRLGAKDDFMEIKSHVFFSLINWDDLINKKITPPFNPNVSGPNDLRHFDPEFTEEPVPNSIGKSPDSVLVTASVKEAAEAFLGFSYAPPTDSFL
Sequence of MAP kinase-activated protein kinase 2 (P49137 whole entry): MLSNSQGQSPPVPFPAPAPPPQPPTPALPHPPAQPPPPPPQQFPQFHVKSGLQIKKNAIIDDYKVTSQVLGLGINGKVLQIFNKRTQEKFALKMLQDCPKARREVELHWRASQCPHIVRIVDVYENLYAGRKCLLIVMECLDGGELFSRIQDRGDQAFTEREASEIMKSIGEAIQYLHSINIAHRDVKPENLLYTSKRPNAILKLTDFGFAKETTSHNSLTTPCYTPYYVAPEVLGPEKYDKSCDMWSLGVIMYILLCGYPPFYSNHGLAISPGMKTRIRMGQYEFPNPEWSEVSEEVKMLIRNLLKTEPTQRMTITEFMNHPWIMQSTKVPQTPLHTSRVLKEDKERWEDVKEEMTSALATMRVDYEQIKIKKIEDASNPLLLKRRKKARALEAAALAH

COc1cc2ncnc(Nc3ccc(F)c(Cl)c3)c2cc1NC(=O)/C=C/CN1CCCCC1 [DACOMITINIB ANHYDROUS]
29 nM: cells
4 µM: NCI-H441
> 40 µM: [25] | [26] | [27] | [28] | [29] | [30] | [31] | [32]
63 nM: Calu-3
41 nM: [1]
> 10 µM: all other assays above
